Test systems include Pseudomonas putida; Escherichia coli; Candida albicans; Saccharomyces cerevisiae; Serratia marcescens; Candida krusei CBS 573; Bacillus megaterium Bm11; Micrococcus luteus A270; Candida albicans MDM8; Escherichia coli SBS 363.
Holding throughout (assay): ≥ marks a high value that may be exact or a test limit, other limits are often not marked, values filed in µg/mL are converted to µM
In experiment [1] the test system is Salmonella enterica subsp. enterica serovar Typhimurium ATCC 14028.
For experiment [2], the system named is Proteus mirabilis ATCC 25933.
For experiment [3], the system named is Bacillus subtilis KCTC 1021.
In experiment [4] the test system is Klebsiella pneumoniae ATCC 10031.
Experiment [5] deals with Micrococcus luteus ATCC 4698.
For experiment [6], the system named is Shigella dysenteriae ATCC 9752.
Experiment [7] concerns Pseudomonas aeruginosa ATCC 9027.
The subject of experiment [8] is Staphylococcus epidermidis ATCC 12228.
Experiment [9] relates to Escherichia coli NCTC 10418.
The test system of experiment [10] is Candida albicans NCTC 1467.
For experiment [11], the system named is Staphylococcus aureus ATCC 12493.
In experiment [12] the test system is Pseudomonas aeruginosa ATCC 27853.
Experiment [13] concerns Staphylococcus aureus NCTC 10788.
Experiment [14] relates to Enterococcus faecalis NCTC 12697.
In experiment [15] the test system is Candida parapsilosis CBS 604.
For experiment [16], the system named is Saccharomyces cerevisiae SZMC 0644.
The subject of experiment [17] is Candida albicans ATCC 10231.
Experiment [18] has as its system Enterococcus faecalis ATCC 19433.
In experiment [19] the test system is Streptococcus pyogenes ATCC 49399.
For experiment [20], the system named is Klebsiella aerogenes ATCC 35029.
Experiment [21] has as its system Enterobacter cloacae ATCC 49141.
In experiment [22] the test system is Escherichia coli ATCC 25922.
Experiment [23] concerns Staphylococcus aureus ATCC 6538P.
For experiment [24], the system named is Escherichia coli ATCC 35218.
The test system of experiment [25] is Klebsiella pneumoniae ATCC 700603.
Experiment [26] deals with Staphylococcus aureus ATCC 80958.
In experiment [27] the test system is Klebsiella pneumoniae KpC+001825971.
For experiment [28], the system named is Serratia marcescens ATCC 13880.
For experiment [29], the system named is Klebsiella oxytoca ATCC 13182.

For six compounds, MIC results are on record in DBAASP.

Converted amounts (≈) assume the structure as drawn.

For `CC[C@H](C)[C@@H]1NC(=O)[C@H](C)NC(=O)[C@@H](NC(=O)[C@H](Cc2ccccc2)NC(=O)[C@@H](NC(=O)[C@H](CO)NC(=O)[C@@H]2CCCN2C(=O)[C@H](CC(C)C)NC(=O)[C@@H](NC(=O)[C@H](CCCCN)NC(=O)[C@H](CO)NC(=O)[C@H](C)NC(=O)[C@@H](NC(=O)[C@H](CCCCN)NC(=O)[C@H](Cc2ccccc2)NC(=O)[C@H](CC(C)C)NC(=O)[C@H](C)NC(=O)CNC(=O)[C@H](CC(C)C)NC(=O)[C@@H](N)Cc2ccccc2)C(C)C)C(C)C)C(C)C)CSSC[C@@H](C(=O)O)NC(=O)[C@H](CCCCN)NC(=O)[C@H](CCCCN)NC(=O)[C@H]([C@@H](C)O)NC1=O` [FLGALFKVASKVLPSVFCAITKKC], the MIC (in general, the smallest concentration in the dilution series that meets the test's criterion for growth inhibition) in experiment [1] is 77.8 µM (≈ 200 µg/mL); in experiment [2], at least 77.8 µM; in experiment [3], 3.89 µM (≈ 9.99 µg/mL); in the experiment on Pseudomonas putida it was 19.4 µM (≈ 50 µg/mL); in [4], 19.4 µM (≈ 50 µg/mL); against Escherichia coli, 19.4 µM (≈ 50 µg/mL). The MIC against Candida albicans came to 19.4 µM (≈ 50 µg/mL); against Saccharomyces cerevisiae, 19.4 µM (≈ 50 µg/mL); in experiment [5] it was 0.972 µM (≈ 2.5 µg/mL); in experiment [6], 19.4 µM (≈ 50 µg/mL); in experiment [7], 38.9 µM (≈ 99.9 µg/mL); in experiment [8], 3.89 µM (≈ 9.99 µg/mL). The MIC with Serratia marcescens was at least 77.8 µM.

For the compound `CC[C@H](C)[C@H](NC(=O)CN)C(=O)N[C@@H](CCSC)C(=O)N[C@@H](CC(=O)O)C(=O)N[C@H](C(=O)N[C@H](C(=O)N[C@@H](CCCCN)C(=O)N[C@@H](CC(N)=O)C(=O)N[C@@H](C)C(=O)N[C@@H](C)C(=O)N[C@@H](CCCCN)C(=O)N[C@@H](CC(N)=O)C(=O)N[C@@H](CC(C)C)C(=O)N[C@@H](C)C(=O)NCC(=O)N[C@@H](CCC(N)=O)C(=O)N[C@@H](CC(C)C)C(=O)N[C@@H](CC(C)C)C(=O)N[C@@H](CC(=O)O)C(=O)N[C@@H](CCCCN)C(=O)N[C@@H](CC(C)C)C(=O)N[C@@H](CCCCN)C(=O)N[C@H]1CSSC[C@@H](C(=O)O)NC(=O)[C@H](C)NC(=O)[C@H]([C@@H](C)O)NC(=O)[C@H]([C@@H](C)CC)NC(=O)[C@H](CO)NC1=O)C(C)C)[C@@H](C)O` [GIMDTVKNAAKNLAGQLLDKLKCSITAC], the MIC in experiment [9] is at least 512 µM; in [10] it was at least 512 µM; in experiment [11] it was at least 512 µM; in experiment [12], above 512 µM; in experiment [13], at least 512 µM; in [14], at least 512 µM.

For `CC[C@H](C)[C@H](N)C(=O)N[C@@H](C)C(=O)NCC(=O)N[C@@H](C)C(=O)N[C@@H](Cc1cnc[nH]1)C(=O)N[C@@H](CCCCN)C(=O)N[C@H]1CSSC[C@@H](C(=O)N[C@@H](CC(N)=O)C(=O)N[C@@H](CO)C(=O)N2CCC[C@H]2C(=O)N[C@@H](CC(N)=O)C(=O)O)NC(=O)[C@@H]2CSSC[C@H](NC(=O)[C@@H]3CCCN3C(=O)[C@H](CCCCN)NC1=O)C(=O)N[C@@H](Cc1ccc(O)cc1)C(=O)NCC(=O)N[C@@H](Cc1ccc(O)cc1)C(=O)N[C@@H](CCCCN)C(=O)N[C@@H]([C@@H](C)O)C(=O)N[C@@H](CC(N)=O)C(=O)N[C@@H](CO)C(=O)N2` [IAGAHKCKPCYGYKTNSCCNSPN], the MIC (in [15]; in the experiment on Candida krusei CBS 573; in [16]; in experiment [17]) was 20.3 µM (≈ 49.9 µg/mL) throughout.

Take `CC[C@H](C)[C@H](NC(=O)[C@H](CCCN=C(N)N)NC(=O)[C@@H](NC(=O)[C@H](CCCN=C(N)N)NC(=O)[C@H](Cc1c[nH]c2ccccc12)NC(=O)[C@H](CCCN=C(N)N)NC(=O)[C@H](Cc1ccccc1)NC(=O)[C@H](CCCN=C(N)N)NC(=O)[C@@H]1CCCN1)[C@@H](C)CC)C(N)=O` [PRFRWRIRI]: the MIC in [18] was at least 80 µM; in the experiment with Bacillus megaterium Bm11, 2.5 µM (≈ 3.25 µg/mL); in experiment [19], 2.5 µM (≈ 3.25 µg/mL); in experiment [20], at least 80 µM; in experiment [12], 20 µM (≈ 26 µg/mL); in [21] it was at least 80 µM. In addition, the figures for the MIC in experiment [22] and in [23] were 3.54 µM (≈ 4.59 µg/mL) and at least 80 µM, respectively.

As to `CC(C)C[C@H](NC(=O)[C@H](Cc1ccc(O)cc1)NC(=O)[C@H](C)NC(=O)[C@H](CCCN=C(N)N)NC(=O)[C@H](Cc1ccccc1)NC(=O)[C@H](Cc1ccc(O)cc1)NC(=O)[C@H](CCCCN)NC(=O)[C@@H](NC(=O)[C@H](Cc1c[nH]c2ccccc12)NC(=O)[C@H](CCCN=C(N)N)NC(=O)[C@H](Cc1cnc[nH]1)NC(=O)[C@H](CC(C)C)NC(=O)[C@H](Cc1ccccc1)NC(=O)[C@H](CCCN=C(N)N)NC(=O)[C@@H](NC(=O)[C@H](Cc1ccc(O)cc1)NC(=O)[C@H](CCCCN)NC(=O)[C@@H](N)CCCN=C(N)N)C(C)C)C(C)C)C(=O)O` [RKYVRFLHRWVKYFRAYL], the MIC in [24] was 7.35 µM (≈ 18.4 µg/mL); in experiment [25], 3.67 µM (≈ 9.18 µg/mL); in experiment [26], 7.35 µM (≈ 18.4 µg/mL); in [27], 25.6 µM (≈ 64.1 µg/mL); in [28], 1.84 µM (≈ 4.6 µg/mL); in experiment [29] it was 1.84 µM (≈ 4.6 µg/mL).

Take `CC[C@H](C)[C@H](NC(=O)[C@H](CC(C)C)NC(=O)[C@@H]1CCCN1C(=O)[C@H](CC(C)C)NC(=O)[C@H](CC(C)C)NC(=O)[C@@H](N)CO)C(=O)N[C@@H](CCCN=C(N)N)C(=O)N[C@@H](CCCCN)C(=O)N[C@@H](CC(C)C)C(=O)N[C@H](C(=O)N[C@H](C(N)=O)[C@@H](C)O)[C@@H](C)CC` [SLLPLIRKLIT]: the MIC in the experiment on Micrococcus luteus A270 was determined as 1.56 µM (≈ 1.97 µg/mL); against Candida albicans MDM8 it was 1.56 µM (≈ 1.97 µg/mL); in the experiment with Escherichia coli SBS 363, 3.12 µM (≈ 3.95 µg/mL).
